The target of the experiment is T1, CapZβ (Homo sapiens, UniProt P47756).
T1 construct: gene CAPZB; recombinant CapZβ
The experiment can be described thus: isothermal titration calorimetry. The conditions noted are these: biotinylated vacuolin-1 analogue; labelled compound. It is filed as binding. On the technique in general: ITC needs no label: the signal is the heat of the interaction.

T1 sequence (P47756 2-272): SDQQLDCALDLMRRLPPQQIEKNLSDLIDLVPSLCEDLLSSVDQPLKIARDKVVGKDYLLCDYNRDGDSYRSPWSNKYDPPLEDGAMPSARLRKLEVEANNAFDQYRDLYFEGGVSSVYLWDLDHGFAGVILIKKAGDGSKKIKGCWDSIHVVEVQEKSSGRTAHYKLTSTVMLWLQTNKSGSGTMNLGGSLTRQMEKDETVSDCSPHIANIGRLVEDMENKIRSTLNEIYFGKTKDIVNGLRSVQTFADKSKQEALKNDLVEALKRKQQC

A word on the Kd: it is the constant that tells how readily two partners part at equilibrium. Substance biotin-V1 registered a Kd of approximately 3.1 µM.

Source of the values: article PMC7946642, “Vacuolin-1 inhibits endosomal trafficking and metastasis via CapZβ” (Oncogene, 2021).
